Where two headings read alike, the source gives them in different places.
Tests used:
L5-MG E52D [1] = format: binding, human; conditions: yeast cell surface displayed L5-MG E52D; PBS+
Method: Microplate fluorometry was carried out on a Tecan Safire2 microplate reader using 96 well microplates with 5×10^6 yeast cells/well.
Yeast JAR200 cells expressing L5-MG E52D were suspended at 10^7 cells/ml in modified PBS+ buffer in the presence of the indicated dyedron concentrations. Fluorescence was read on a Safire2 plate fluorimeter. KD values reported in Table 2 were determined using GraphPad Prism 4 software fits to the one site hyperbolic binding curves shown here. Under these conditions, KD values below 1 nM cannot be determined precisely. Plateau fluorescence levels correspond closely to the relative fluorescence signals seen in flow cytometric analyses using 635 nm laser excitation of the MG band (Table 3).

L5-MG E52D [2] = format: physicochemical, human; conditions: soluble dyedron/L5-MG E52D complex
L5-MG E52D [3] = format: physicochemical, human; conditions: soluble dyedron/L5-MG E52D complex; 620 nm excitation
Method: Fluoromodules were assembled as above, and quantum yields based on the acceptor MG excitation band were determined as described using Cy5.18 as the calibration dye (Szent-Gyorgyi, C., et al., Nature Biotechnology 2008, 26, 235-240). Quantum yields determined with 620 nm excitation (Table 2) were essentially the same as unreported quantum yields determined with 590 nm excitation (<5% difference).

L5-MG E52D [4] = format: physicochemical, human; conditions: bound to L5-MG E52D; for Relative quantum yield, 514 nm / Relative quantum yield, 532 nm / Relative quantum yield, 561 nm: normalized to 633 nm value; for Relative quantum yield, 633 nm: set to 1.00
[5] = tested on: yeast strain JAR200 expressing L5-MG E52D scFv on the cell surface; assay: Flow cytometric quantification of dyedron binding to yeast displayed L5-MG E52D; format: cell-based, Saccharomyces cerevisiae; conditions: for increase in specific brightness (factor), 532 nm vs 635 nm staining ratio / 532 laser median / 635 laser median / 532 laser mean / 635 laser mean: 300 nM dyedron; for increase in specific brightness (factor), 532 nm vs 635 nm staining ratio: live yeast; for 532 laser median / 635 laser median / 532 laser mean / 635 laser mean: 675/50 bandpass, JAR200 L5-MG E52D; for 532 laser mean / 635 laser mean: gated positive population; for FACS532/FACS635: median of stained population - median of unstained control
Method: (§1) FIG. 15. Flow cytometric analysis of dyedron-labeled yeast by exciting donor (blue) or acceptor (red). Saccharomyces cerevisiae cells expressing L5-MG E52D on their surface were analyzed essentially as described in WO 08/092,041 and in Szent-Gyorgyi, C.; Schmidt, B. F.; Creeger, Y.; Fisher, G. W.; Zakel, K. L.; Adler, S.; Fitzpatrick, J. A. J.; Woolford, C. A.; Yan, Q.; Vasilev, K. V.; Berget, P. B.; Bruchez, M. P.; Jarvik, J. W.; Waggoner, A. Nature Biotechnology 2008, 26, 235-240. Two aliquots of each stained population and an unstained control (U) were respectively analyzed, exciting at 532 nm (donor) or 635 nm (acceptor), and collecting emission through a 675/50 nm bandpass (BP) filter. Each analysis comprised 100,000 cells. Stained samples contain a sub-population of non-fluorescent cells due to loss of scFv-encoding plasmid, whose signal corresponds to that of unstained samples (marked by thin lines). Controls show virtually no fluorescence generated by dyedrons on cell surfaces in the absence of expressed FAP (Table 3). Unstained cells excited at 532 nm are relatively brighter than those excited at 635 nm due to higher cellular autofluorescence at the shorter wavelength. Doublet stained peaks correspond to unbudded and budded yeast cells, and are typical for such experiments. Separation of the positive cells from negative cells remains essentially constant under 635 nm excitation but increases in proportion to the number of Cy3 donors under 532 nm excitation. The enhanced excitation in the dyedrons results in increased sensitivity in the flow cytometer.

[6] = tested on: control strain JAR200 that does not express scFv; assay: Flow cytometry, control strain that does not express scFv; format: cell-based, Saccharomyces cerevisiae; conditions: 300 nM dyedron, 675/50 bandpass
Method: as §1

selected scFv = assay: Fluorescence activation of malachite green by selected scFv; format: biochemical; conditions: in buffer
[7] = not given; remark: listed apart in the source
[8] = Donor array fluorescence of Cy3-labeled cystamine core PAMAM dendrimers; format: physicochemical
Method: To test the impact of high loading on donor array fluorescence, two cystamine core PAMAM dendrimers (Gen2-16 NH2 and Gen3-32 NH2) were labeled with an excess of monoreactive Cy3-NHS ester. After removal of excess dye by gel filtration the resulting macromolecules were analyzed by electrophoresis, and found to have low net mobility. Because each Cy3 molecule carries one net negative charge, a fully modified dendron should have a net charge of −2. […] However, these conjugates allow for the assessment of the potential risk of donor quenching.

SMILES	Kd (L5-MG E52D [1]) [nM]	εmax [M^−1cm^−1] (L5-MG E52D [2])	εmax [nm] (L5-MG E52D [2])	φMG (quantum yield for MG excitation peak) (L5-MG E52D [3])	Relative quantum yield, 514 nm (L5-MG E52D [4])	Relative quantum yield, 532 nm (L5-MG E52D [4])	Relative quantum yield, 561 nm (L5-MG E52D [4])	Relative quantum yield, 633 nm (L5-MG E52D [4])	increase in specific brightness (factor), 532 nm vs 635 nm staining ratio [5]	532 laser median [5]	635 laser median [5]	532 laser mean [5]	635 laser mean [5]	FACS532/FACS635 [5]	532 laser mean [6]	532 laser median [6]	635 laser mean [6]	635 laser median [6]	further results
CC[N+]1=C(/C=C/C=C2/N(CCCCCC(=O)NCC(CNC(=O)CCCCCN3/C(=C/C=C/C4=[N+](CC)c5ccc(S(=O)(=O)O)cc5C4(C)C)C(C)(C)c4cc(S(=O)(=O)[O-])ccc43)OCC(=O)NCCCOc3ccc(C(=C4C=CC(=[N+](C)C)C=C4)c4ccc(N(C)C)cc4)cc3)c3ccc(S(=O)(=O)[O-])cc3C2(C)C)C(C)(C)c2cc(S(=O)(=O)[O-])ccc21 (centres unmarked) [BCM]	4	290,000 M^−1cm^−1	551	0.047	0.92	0.86	1.31	1.00	~3	6912	2047	17894	5521	3.27	113	84	105	64	–
CN(C)c1ccc(C(=C2C=CC(=[N+](C)C)C=C2)c2ccccc2)cc1 [Malachite green]	–	–	–	–	–	–	–	–	–	–	–	–	–	–	–	–	–	–	activation to fluorescent state (fold) (selected scFv): > 15,000 fold
CCN1/C(=C\C=C\C2=[N+](CCCCCC(=O)NCCNC(=O)CCCOc3ccc(C(=C4C=CC(=[N+](C)C)C=C4)c4ccc(N(C)C)cc4)cc3)c3ccc(S(=O)(=O)[O-])cc3C2(C)C)C(C)(C)c2cc(S(=O)(=O)[O-])ccc21 [CM, 1-{6-[(2-{[4-(4-{[4-(dimethylamino)phenyl][4-(dimethyliminio)cyclohexa-2,5-dien-1-ylidene]methyl}phenoxy)butanoyl]amino}ethyl)amino]-6-oxohexyl}-2-[(1E,3Z)-3-(1-ethyl-3,3-dimethyl-5-sulfonato-1,3-dihydro-2H-indol-2-ylidene)prop-1-en-1-yl]-3,3-dimethyl-3H-indolium-5-sulfonate]	< 1	140,000 M^−1cm^−1	552	0.057	1.24	1.08	1.41	1.00	about 2	6170	2793	15946	7455	2.17	123	95	108	65	–
CN(C)c1ccc(C(=C2C=CC(=[N+](C)C)C=C2)c2ccc(OCCCC(=O)NCCNC(=O)CCC(=O)NCCOCCOCCN)cc2)cc1 [M, malachite green diethyleneglycolamine]	< 1	79,000 M^−1cm^−1	642	0.055	–	–	1.44	1.00	–	335	2635	435	7089	0.07	111	76	118	74	extinction coefficient (PBS+): 50,700 M^−1cm^−1; extinction coefficient (ethanol/5% HAc): 91,500 M^−1cm^−1
CN(C)c1ccc(C(C#Cc2ccc(N(C)CCOCCCC(=O)O)cc2)=C2C=CC(=[N+](C)C)C=C2)cc1.[Cl-] [acetylenic derivative of malachite green]	–	–	–	–	–	–	–	–	–	–	–	–	–	–	–	–	–	–	quantum yield in water [7]: ≤ 0.003
CCN1/C(=C\C=C\C2=[N+](CCCCCC(=O)O)c3ccc(S(=O)(=O)O)cc3C2(C)C)C(C)(C)c2cc(S(=O)(=O)[O-])ccc21 [Cy3]	–	–	–	–	–	–	–	–	–	–	–	–	–	–	–	–	–	–	Estimated Diam. (nm) [8]: 1.5 nm

Reference: patent publication US9249306B2, “Quenched dendrimeric dyes for florescence detection” (Carnegie Mellon University, priority 2009, dated 2016)
